Data set [1] deals with rat. Conditions: Prenatal developmental toxicity study; wistar; Oral; Gavage/Intubation; dose end: 5 GD; group: maternal; reproductive / reproductive performance / implantations / implantations.
Data set [2] relates to rat. Conditions: Multigenerational reproductive toxicity study, other, Oral, Feed, dose end: 2 generation.
Data set [3] has as its system dog. Conditions: Subchronic oral toxicity in nonrodent, beagle, Feed, dose end: 90 day, group: systemic, systemic / clinical chemistry / cortisol / cortisol + systemic / organ weight / liver / relative to body weight + systemic / pathology ….
The subject of data set [4] is mouse. Conditions: Subchronic oral toxicity in rodents, cd1, Feed, dose end: 90 day, group: systemic, systemic / clinical chemistry / hepatic mixed function oxidase (mfo) assay / hepatic mixed function oxidase (mfo) assay + systemic / in life….
Data set [5] concerns rat. Conditions: Combined chronic toxicity/carcinogenicity, other, Oral, Feed, dose end: 24 month, group: systemic.
The subject of data set [6] is rat. Conditions: Subchronic oral toxicity in rodents, sprague dawley, Feed, dose end: 90 day, group: systemic.
Data set [7] deals with mouse. Conditions: Carcinogenicity; b6c3f1; Oral; Feed; dose end: 78 week; group: systemic; systemic / in life observation / body weight / body weight gain.
For data set [8], the system named is dog. Conditions: Chronic toxicity, beagle, Oral, Feed, dose end: 52 week, group: systemic.
Data set [9] concerns rat. Conditions: Developmental neurotoxicity study; sprague dawley; Inhalation; Whole-Body; dose end: 365 PND; group: cannot be grouped; systemic / in life observation / body weight / body weight gain + systemic / in life observation / body weight / offspring (pup) weight.
The test system of data set [10] is rat. Conditions: Developmental neurotoxicity study; sprague dawley; Oral; Gavage/Intubation; dose end: 70 PND; group: cannot be grouped; reproductive / reproductive performance / gestational length / gestational length + systemic / in life observation / body weight / body ….
For data set [11], the system named is rat. Conditions: Developmental neurotoxicity study; sprague dawley; Oral; Water; dose end: 42 PND; group: cannot be grouped; developmental / developmental landmark / eye opening / eye opening + systemic / in life observation / body weight / offspring (pup) weight.
Data set [12] concerns rat. Conditions: Developmental neurotoxicity study; fischer; Oral; Water; dose end: 90 PND; group: cannot be grouped; developmental / developmental landmark / incisor eruption / incisor eruption + systemic / in life observation / body weight / offspring (pup….
The mark [13] stands for this setting: group: offspring, developmental / offspring survival late / viability index / viability index + systemic / in life observation / body weight / offspring (pup….
[14] abbreviates: group: parental, systemic / pathology microscopic / liver / hypertrophy + systemic / pathology microscopic / liver / vacuolization.
[15] abbreviates: group: reproductive, reproductive / offspring survival early / dead fetuses / dead fetuses.
Where [16] appears, read: systemic / pathology microscopic / liver / hypertrophy + systemic / pathology microscopic / liver / vacuolization + systemic / clinical ….
[17] abbreviates: systemic / pathology microscopic / thyroid gland / hypertrophy.
The mark [18] stands for this setting: systemic / pathology microscopic / thyroid gland / hypertrophy + systemic / clinical chemistry / alanine aminotransferase (alt/sgpt) / ….
The mark [19] stands for this setting: systemic / clinical chemistry / albumin / albumin + systemic / clinical chemistry / alkaline phosphatase (alp/alk) / alkaline phosphatase (….
Setting [20] is: systemic / hematology / hematocrit (hct) / hematocrit (hct) + systemic / hematology / hemoglobin (hgb) / hemoglobin (hgb).

For the compound `Cc1ccc(-c2cc(C(F)(F)F)nn2-c2ccc(S(N)(=O)=O)cc2)cc1` [Celecoxib], in data set [1], the LEL is 80 mg/kg/day; the LOAEL (as a rule, the lowest tested level that showed an adverse finding) is more than 160 mg/kg/day; the NEL was found to be 40 mg/kg/day; the NOAEL – broadly, the highest dose or exposure tested at which no adverse effect was seen – was not below 160 mg/kg/day.

As for `OC(c1ccc(Cl)cc1)(c1ccc(Cl)cc1)C(Cl)(Cl)Cl` [Dicofol], the LEL is 11.2 mg/kg/day in data set [2] (group: offspring, developmental / offspring survival late / [other] / [other] + developmental / offspring survival late / viability index / viability index); 1.9 mg/kg/day in data set [2] (setting [14]); 23.2 mg/kg/day in [2] (setting [15]); 3.3 mg/kg/day in data set [3]; 18.2 mg/kg/day in data set [4]; 2.23 mg/kg/day in data set [5] (setting [16]). The LEL in data set [6] (setting [17]) was 0.64 mg/kg/day; in data set [7] it was 35 mg/kg/day; in data set [8] (setting [20]), 0.12 mg/kg/day. Besides, the NEL in data set [2] (group: offspring, developmental / offspring survival late / [other] / [other] + developmental / offspring survival late / viability index / viability index + …) amounted to 2.2 mg/kg/day; in [2] (setting [14]), 0.4 mg/kg/day; in data set [2] (setting [15]), 11.2 mg/kg/day; in [3] it was 0.29 mg/kg/day; in data set [4], 1.6 mg/kg/day; in [5] (setting [16]) it was 0.22 mg/kg/day. The NEL in data set [6] (setting [18]) was 0.07 mg/kg/day; in [7] it was 17 mg/kg/day; in data set [8] (setting [20]), less than 0.12 mg/kg/day. For the same compound, the LOAEL was more than 23.2 mg/kg/day in data set [2] (setting [13]); 1.9 mg/kg/day in data set [2] (setting [14]); more than 23.2 mg/kg/day in data set [2] (setting [15]); 3.3 mg/kg/day in [3]; 18.2 mg/kg/day in data set [4]; 2.23 mg/kg/day in data set [5] (systemic / pathology microscopic / liver / hypertrophy + systemic / pathology microscopic / liver / vacuolization). In addition, the LOAEL in [6] (setting [17]) was found to be 0.64 mg/kg/day; in data set [7], 35 mg/kg/day; in data set [8] (setting [19]) it was 5.42 mg/kg/day. The NOAEL in data set [2] (setting [13]) is not below 23.2 mg/kg/day; in [2] (setting [14]) it was 0.4 mg/kg/day; in data set [2] (setting [15]), not below 23.2 mg/kg/day; in data set [3] it was 0.29 mg/kg/day; in data set [4] it was 1.6 mg/kg/day; in data set [5] (setting [16]), 0.22 mg/kg/day. Besides, the NOAEL in [6] (setting [18]) came to 0.07 mg/kg/day; in data set [7], 17 mg/kg/day; in data set [8] (setting [19]), 0.85 mg/kg/day.

With `FC(F)(F)C(Cl)Br` (stereo unspecified) [Halothane], in data set [9], the LEL turned out to be 12.5 ppm, the LOAEL was more than 12.5 ppm, the NEL is less than 12.5 ppm and the NOAEL was not below 12.5 ppm.

As to `Cn1cc[nH]c1=S` [Methimazole], in data set [10], the LEL came to 20 mg/kg/day, the LOAEL is more than 20 mg/kg/day, the NEL was less than 20 mg/kg/day and the NOAEL is not below 20 mg/kg/day. For the same compound, in [11], the LEL turned out to be 7 mg/kg/day, the LOAEL is more than 7 mg/kg/day, the NEL is less than 7 mg/kg/day and the NOAEL was not below 7 mg/kg/day. In addition, in [12], the LEL was 1.5 mg/kg/day, the LOAEL is more than 15 mg/kg/day, the NEL was less than 1.5 mg/kg/day and the NOAEL is not below 15 mg/kg/day.
